Like-named read-outs stand apart in the source and are kept apart here.

The source of these data is patent US10696692B2, “Amido-benzyl sulfone and sulfoxide derivates” (Forma TM, LLC, priority 2012, dated 2020).

The test system of test [1] is A2780 cells. The test can be described thus: Assay 2: In-Vitro Cell Proliferation Assay (A2780 cells, SRB readout, 72 hours).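 Further: viable cells counted via sulforhodamine B staining, absorbance at 570 nm, after 72 h exposure at 37 °C, DMSO 0.1% as control, media-only background subtracted.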 The following applies: A2780 cells, 72 hours, SRB, read-out: Cell Proliferation (IC50). It counts as cell-based.
Test [2] addresses NAMPT (Homo sapiens (Human), UniProt P43490). The test can be described thus: Assay 1: Biochemical Inhibition Assay (NAMPT enzymatic reaction, NMN quantified by mass spectrometry).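 Further: recombinant His-tagged human NAMPT preincubated with compound 15 min, then reacted 30 min at rt with 1 µM NAM, 100 µM PRPP, 2.5 mM ATP, NMN product read by RapidFire MS, normalized to L-Cystathionine internal standard.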 Conditions: read-out: Biochemical (IC50).

Chain of NAMPT (P43490 whole entry): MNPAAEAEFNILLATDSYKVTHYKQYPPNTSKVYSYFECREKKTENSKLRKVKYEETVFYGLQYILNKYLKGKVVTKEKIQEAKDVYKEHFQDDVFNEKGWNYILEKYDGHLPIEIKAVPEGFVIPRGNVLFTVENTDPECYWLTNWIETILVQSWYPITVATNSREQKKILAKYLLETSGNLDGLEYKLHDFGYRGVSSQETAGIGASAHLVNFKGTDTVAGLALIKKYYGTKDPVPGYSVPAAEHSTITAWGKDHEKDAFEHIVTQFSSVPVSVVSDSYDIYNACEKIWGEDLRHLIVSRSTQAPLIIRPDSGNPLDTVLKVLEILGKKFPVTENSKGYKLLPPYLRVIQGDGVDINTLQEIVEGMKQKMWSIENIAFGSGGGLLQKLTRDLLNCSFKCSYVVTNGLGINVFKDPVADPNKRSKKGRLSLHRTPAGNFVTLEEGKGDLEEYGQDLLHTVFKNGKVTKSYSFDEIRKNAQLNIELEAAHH

`O=C(NCc1ccc(S(=O)(=O)N2CC3CCC(C2)O3)cc1)c1cc2ccncc2s1` [Example 3, Thieno[2,3-c]pyridine-2-carboxylic acid 4-(8-oxa-3-aza-bicyclo[3.2.1]octane-3-sulfonyl)-benzylamide]: the IC50 is 0.0064 µM in test [1] (Homo sapiens, A2780, 72 h) and 0.0126 µM in test [2].

For `O=C(NCc1ccc(S(=O)(=O)N2CC3CCC(C2)O3)cc1)c1ccc2nccn2c1` [Example 4, Imidazo[1,2-a]pyridine-6-carboxylic acid 4-(8-oxa-3-aza-bicyclo[3.2.1]octane-3-sulfonyl]-benzylamide], the IC50 in test [1] (Homo sapiens, A2780, 72 h) was found to be 0.0074 µM; in test [2], 0.072 µM.

For `O=C(NCc1ccc(S(=O)(=O)N2CCCCC2)cc1)c1cc2ccncc2o1` [Example 5, Furo[2,3-c]pyridine-2-carboxylic acid 4-(piperidine-1-sulfonyl)-benzylamide], the IC50 came to 0.0292 µM in test [1] (Homo sapiens, A2780, 72 h) and 0.0094 µM in test [2].

Regarding `O=C(NCc1ccc(S(=O)(=O)N2CCCCC2)cc1)c1cnc2nccn2c1` [Example 6, Imidazo[1,2-a]pyrimidine-6-carboxylic acid 4-(piperidine-1-sulfonyl)-benzylamide], the IC50 turned out to be 0.129 µM in test [1] (Homo sapiens, A2780, 72 h) and 0.0035 µM in test [2].

On to `COC1CCN(S(=O)(=O)c2ccc(CNC(=O)c3cc4ccncc4o3)cc2)CC1` [Example 7, Furo[2,3-c]pyridine-2-carboxylic acid 4-(4-methoxy-piperidine-1-sulfonyl)-benzylamide], for which the IC50 in test [1] (Homo sapiens, A2780, 72 h) worked out at 0.0133 µM; in test [2], 0.0109 µM.

On to `O=C(NCc1ccc(S(=O)(=O)N2CCOCC2)cc1)c1cnc2[nH]ncc2c1` [Example 9, 1H-Pyrazolo[3,4-b]pyridine-5-carboxylic acid 4-(morpholine-4-sulfonyl)-benzylamide], for which the IC50 in test [1] (Homo sapiens, A2780, 72 h) is 0.278 µM; in test [2], 0.105 µM.

On to `O=C(NCc1ccc(S(=O)(=O)N2CCOCC2)cc1)c1ccc2nccn2c1` [Example 10, Imidazo[1,2-a]pyridine-6-carboxylic acid 4-(morpholine-4-sulfonyl)-benzylamide], for which the IC50 in test [1] (Homo sapiens, A2780, 72 h) is 0.0148 µM; in test [2], 0.0251 µM.

Consider `N#CC1CCN(S(=O)(=O)c2ccc(CNC(=O)c3cc4ccncc4o3)cc2)CC1` [Example 12, Furo[2,3-c]pyridine-2-carboxylic acid 4-(4-cyano-piperidine-1-sulfonyl)-benzylamide], for which the IC50 is 0.186 µM in test [1] (Homo sapiens, A2780, 72 h) and 0.0262 µM in test [2].

For `N#CCC1CCN(S(=O)(=O)c2ccc(CNC(=O)c3cc4ccncc4o3)cc2)CC1` [Example 13], the IC50 in test [1] (Homo sapiens, A2780, 72 h) came out at 0.0338 µM; in test [2], 0.0126 µM.

Turning to `O=C(NCc1ccc(S(=O)(=O)N2CCOCC2)cc1)c1cnc2nccn2c1` [Example 15, Imidazo[1,2-a]pyrimidine-6-carboxylic acid 4-(morpholine-4-sulfonyl)-benzylamide], the IC50 in test [1] (Homo sapiens, A2780, 72 h) worked out at 0.624 µM; in test [2] it was 0.0068 µM.

As to `O=C(NCc1ccc(S(=O)(=O)N2CCCCC2)cc1)c1ccc2nccn2n1` [Example 16, Imidazo[1,2-b]pyridazine-6-carboxylic acid 4-(piperidine-1-sulfonyl)-benzylamide], the IC50 in test [1] (Homo sapiens, A2780, 72 h) came to 0.163 µM; in test [2], 0.022 µM.

As to `CN1CCN(S(=O)(=O)c2ccc(CNC(=O)c3ccc4nccn4c3)cc2)CC1` [Example 17, Imidazo[1,2-a]pyridine-6-carboxylic acid 4-(4-methyl-piperazine-1-sulfonyl)-benzylamide], the IC50 is 0.0534 µM in test [1] (Homo sapiens, A2780, 72 h) and 0.101 µM in test [2].

With `O=C(NCc1ccc(S(=O)(=O)C2CCOCC2)cc1)c1cnc2nccn2c1` [Example 21, Imidazo[1,2-a]pyrimidine-6-carboxylic acid 4-(tetrahydro-pyran-4-sulfonyl)-benzylamide], the IC50 in test [1] came out at 0.185 µM; in test [2], 0.0087 µM.

For `O=C(NCc1ccc(S(=O)(=O)N2CCN(CC(F)(F)F)CC2)cc1)c1ccc2nccn2c1` [Example 25, Imidazo[1,2-a]pyridine-6-carboxylic acid 4-[4-(2,2,2-trifluoro-ethyl)-piperazine-1-sulfonyl]-benzylamide], the IC50 in test [1] (Homo sapiens, A2780, 72 h) was 0.0105 µM; in test [2], 0.0242 µM.

As to `O=C(NCc1ccc(S(=O)(=O)N2CC3CCC(C2)O3)cc1)c1cnc2nccn2c1` [Example 26, Imidazo[1,2-a]pyrimidine-6-carboxylic acid 4-(8-oxa-3-aza-bicyclo[3.2.1]octane-3-sulfonyl)-benzylamide], the IC50 in test [1] (Homo sapiens, A2780, 72 h) stood at 0.135 µM; in test [2] it was 0.0046 µM.

Regarding `O=C(NCc1ccc(S(=O)(=O)N2CC3CCC(C2)O3)cc1)c1cnc2[nH]ncc2c1` [Example 27, 1H-Pyrazolo[3,4-b]pyridine-5-carboxylic acid 4-(8-oxa-3-aza-bicyclo[3.2.1]octane-3-sulfonyl)-benzylamide], the IC50 in test [1] (Homo sapiens, A2780, 72 h) was determined as 0.132 µM; in test [2], 0.142 µM.

For the molecule `O=C(NCc1ccc(S(=O)(=O)N2CCC(O)CC2)cc1)c1ccc2nccn2c1` [Example 28, Imidazo[1,2-a]pyridine-6-carboxylic acid 4-(4-hydroxy-piperidine-1-sulfonyl)-benzylamide], the IC50 is 0.0276 µM in test [1] (Homo sapiens, A2780, 72 h) and 0.0235 µM in test [2].

As for `O=C(NCc1ccc(S(=O)(=O)N2CCC(O)CC2)cc1)c1cnc2nccn2c1` [Example 29, Imidazo[1,2-a]pyrimidine-6-carboxylic acid 4-(4-hydroxy-piperidine-1-sulfonyl)-benzylamide], the IC50 in test [1] (Homo sapiens, A2780, 72 h) was determined as 0.545 µM; in test [2], 0.0075 µM.

Consider `O=C(NCc1ccc(S(=O)(=O)N2CCC(O)CC2)cc1)c1cnc2[nH]ncc2c1` [Example 30, 1H-Pyrazolo[3,4-b]pyridine-5-carboxylic acid 4-(4-hydroxy-piperidine-1-sulfonyl)-benzylamide], for which the IC50 in test [1] (Homo sapiens, A2780, 72 h) amounted to 0.205 µM; in test [2], 0.178 µM.

Turning to `O=C(NCc1ccc(S(=O)(=O)N2CCC(O)CC2)cc1)c1cc2cnccc2[nH]1` [Example 31, 1H-Pyrrolo[3,2-c]pyridine-2-carboxylic acid 4-(4-hydroxy-piperidine-1-sulfonyl)-benzylamide], the IC50 in test [1] (Homo sapiens, A2780, 72 h) worked out at 0.0482 µM; in test [2], 0.055 µM.

As for `NC1CCN(S(=O)(=O)c2ccc(CNC(=O)c3cc4ccncc4s3)cc2)CC1` [Example 36, Thieno[2,3-c]pyridine-2-carboxylic acid 4-(4-amino-piperidine-1-sulfonyl)-benzylamide], the IC50 in test [1] (Homo sapiens, A2780, 72 h) came to 0.0463 µM; in test [2], 0.0113 µM.

Turning to `O=C(NCc1ccc(S(=O)(=O)N2CCC(NCC(F)F)CC2)cc1)c1cnc2[nH]ncc2c1` [Example 37, 1H-Pyrazolo[3,4-b]pyridine-5-carboxylic acid 4-[4-(2,2-difluoro-ethylamino)-piperidine-1-sulfonyl]-benzylamide], the IC50 stood at 0.0139 µM in test [1] (Homo sapiens, A2780, 72 h) and 0.0441 µM in test [2].

On to `O=C(NCc1ccc(S(=O)(=O)N2CCC(O)CC2)cc1)c1cc2ccncc2o1` [Example 38, Furo[2,3-c]pyridine-2-carboxylic acid 4-(4-hydroxy-piperidine-1-sulfonyl)-benzylamide], for which the IC50 in test [1] (Homo sapiens, A2780, 72 h) turned out to be 0.0621 µM; in test [2] it was 0.0265 µM.

Consider `COCCNC1CCN(S(=O)(=O)c2ccc(CNC(=O)c3cnc4[nH]ncc4c3)cc2)CC1` [Example 39, 1H-Pyrazolo[3,4-b]pyridine-5-carboxylic acid 4-[4-(2-methoxy-ethylamino)-piperidine-1-sulfonyl]-benzylamide], for which the IC50 in test [1] (Homo sapiens, A2780, 72 h) turned out to be 0.0947 µM; in test [2], 0.0835 µM.

Regarding `O=C(NCc1ccc(S(=O)(=O)N2CCN(C3CCCCC3)CC2)cc1)c1ccc2nccn2c1` [Example 40, Imidazo[1,2-a]pyridine-6-carboxylic acid 4-(4-cyclohexyl-piperazine-1-sulfonyl)-benzylamide], the IC50 in test [1] (Homo sapiens, A2780, 72 h) stood at 0.0069 µM; in test [2], 0.0171 µM.

For the molecule `CC(C)CN1CCN(S(=O)(=O)c2ccc(CNC(=O)c3ccc4nccn4c3)cc2)CC1` [Example 43, Imidazo[1,2-a]pyridine-6-carboxylic acid 4-(4-isobutyl-piperazine-1-sulfonyl)-benzylamide], the IC50 in test [1] (Homo sapiens, A2780, 72 h) was determined as 0.0072 µM; in test [2], 0.0216 µM.

Consider `N[C@H]1C[C@H]2CC[C@@H](C1)N2S(=O)(=O)c1ccc(CNC(=O)c2cc3ccncc3s2)cc1` [Example 44, Thieno[2,3-c]pyridine-2-carboxylic acid 4-((1R,3R,5S)-3-amino-8-aza-bicyclo[3.2.1]octane-8-sulfonyl)-benzylamide], for which the IC50 in test [1] (Homo sapiens, A2780, 72 h) stood at 0.0232 µM; in test [2] it was 0.0058 µM.

For the molecule `O=C(NCc1ccc(S(=O)(=O)N2CCCCC2)cc1)c1ccc2ncnn2c1` [Example 45, [1,2,4]Triazolo[1,5-a]pyridine-6-carboxylic acid 4-(piperidine-1-sulfonyl)-benzylamide], the IC50 is 1 µM in test [1] (Homo sapiens, A2780, 72 h) and 0.0172 µM in test [2].

`C[C@@H]1CN(S(=O)(=O)c2ccc(CNC(=O)c3cc4ccncc4s3)cc2)C[C@H](C)N1` [Example 46, Thieno[2,3-c]pyridine-2-carboxylic acid 4-((3R,5S)-3,5-dimethyl-piperazine-1-sulfonyl)-benzylamide]: the IC50 in test [1] (Homo sapiens, A2780, 72 h) stood at 0.0044 µM; in test [2], 0.0435 µM.

`O=C(NCc1ccc(S(=O)(=O)N2CCCCC2)cc1)c1ccn2nccc2c1` [Example 48, Pyrazolo[1,5-a]pyridine-5-carboxylic acid 4-(piperidine-1-sulfonyl)-benzylamide]: the IC50 in test [1] (Homo sapiens, A2780, 72 h) turned out to be 2 µM; in test [2], 0.0461 µM.

`O=C(NCc1ccc(S(=O)(=O)N2CCC[C@@H](O)C2)cc1)c1cc2cnccc2[nH]1` [Example 50, 1H-Pyrrolo[3,2-c]pyridine-2-carboxylic acid 4-((R)-3-hydroxy-piperidine-1-sulfonyl)-benzylamide]: the IC50 turned out to be 0.0239 µM in test [1] (Homo sapiens, A2780, 72 h) and 0.0362 µM in test [2].

In the case of `O=C(NCc1ccc(S(=O)(=O)N2CCC[C@H](O)C2)cc1)c1cc2ccncc2o1` [Example 51, Furo[2,3-c]pyridine-2-carboxylic acid 4-((S)-3-hydroxy-piperidine-1-sulfonyl)-benzylamide], the IC50 in test [1] was 0.0397 µM; in test [2], 0.0222 µM.
